Test results published in patent US20240000767A1, “COMBINATION OF AN ALPHA2-ADRENOCEPTOR SUBTYPE C (ALPHA-2C) ANTAGONIST WITH A TASK1/3 CHANNEL BLOCKER FOR THE TREATMENT OF SLEEP APNEA” (Bayer Aktiengesellschaft, priority 2020, published 2024).

target: human ADRA2C receptor (Homo sapiens (Human), UniProt P18825); test: In vitro activity assay to determine the inhibition of recombinant ADRA2C (CHO-K1 cells, aequorin bioluminescence); assay type: cell-based; details: inhibition of noradrenaline-induced bioluminescence signal; some mean values from multiple determinations; read-out: ARα2C IC50
Sequence (P18825 whole entry): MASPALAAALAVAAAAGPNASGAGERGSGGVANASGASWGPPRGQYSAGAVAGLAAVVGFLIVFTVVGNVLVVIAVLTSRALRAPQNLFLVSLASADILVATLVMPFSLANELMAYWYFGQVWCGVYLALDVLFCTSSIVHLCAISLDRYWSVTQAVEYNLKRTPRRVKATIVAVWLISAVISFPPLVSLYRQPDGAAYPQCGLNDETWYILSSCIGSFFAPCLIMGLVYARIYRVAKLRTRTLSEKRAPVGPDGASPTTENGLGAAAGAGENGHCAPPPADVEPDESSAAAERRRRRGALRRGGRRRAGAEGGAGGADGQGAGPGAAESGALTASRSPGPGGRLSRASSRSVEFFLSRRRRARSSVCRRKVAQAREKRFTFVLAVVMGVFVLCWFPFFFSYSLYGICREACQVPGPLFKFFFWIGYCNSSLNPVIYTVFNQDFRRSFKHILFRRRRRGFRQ
Experimental: B-2. In Vitro Activity Assay to Determine the Inhibition of Recombinant ADRA2C
The human ADRA2C receptor belongs to the G protein(guanine-dependent protein)-coupled receptors, the main function of which is the transduction of signals into the interior of the cell.
The investigations of the inhibition of the recombinant human ADRA2C receptors were carried out with stabily transfected CHO-K1 cells coexpressing the Gaq protein and the calcium-sensitive photoprotein aequorin. In this recombinant system, binding of the agonists noradrenaline to the ADRA2C receptor leads, after activation of a signal cascade, to calcium release from intracellular stores, which is detected by the intracellular calcium sensor aequorin as a bioluminescent signal. The method is described in detail in the reference below. [Wunder F., Kalthof B., Muller T., Hueser J. Functional Cell-Based Assays in Microliter Volumes for Ultra-High Throughput Screening. Combinatorial Chemistry & High Throughput Screening, Volume 11, Number 7, 2008, pp. 495-504(10). doi.org/10.2174/138620708785204054]
The activity of the test substances was determined via their ability to inhibit the agonist-induced increase of the bioluminescence signal. The concentration which can block half of this signal increase is referred to as IC50. The IC50 value is calculated using the 4 parameter logistic function (Hill function):
Top=upper threshold, Bottom=lower threshold, Slope=slope, IC50=turning point

IC50	SMILES
7.2 nM	C[C@@H]1CCCN(C2CCN(c3ncc(C(=O)NCc4cc(Cl)ccc4F)s3)CC2)C1 [Example 21, N-(5-Chloro-2-fluorobenzyl)-2-[(3R)-3-methyl[1,4′-bipiperidin]-1′-yl]-1,3-thiazole-5-carboxamide]
640 nM	C[C@@H]1CCCN(C2CCN(c3ncc(C(=O)NCc4ccc(C(F)(F)F)cc4)s3)CC2)C1 [Example 22, 2-[(3R)-3-Methyl[1,4′-bipiperidin]-1′-yl]-N-[4-(trifluoromethyl)benzyl]-1,3-thiazole-5-carboxamide]
17 nM	C[C@@H]1CCCN(C2CCN(c3ncc(C(=O)NCc4ncc(Cl)cc4F)s3)CC2)C1 [Example 23, N-[(5-chloro-3-fluoropyridin-2-yl)methyl]-2-[(3R)-3-methyl[1,4′-bipiperidin]-1′-yl]-1,3-thiazole-5-carboxamide]
1060 nM	Cc1cccnc1CNC(=O)c1cnc(N2CCC(N3CCC[C@@H](C)C3)CC2)s1 [Example 24, 2-[(3R)-3-methyl[1,4′-bipiperidin]-1′-yl]-N-[(3-methylpyridin-2-yl)methyl]-1,3-thiazole-5-carboxamide]
2400 nM	Cc1ccnc(CNC(=O)c2cnc(N3CCC(N4CCC[C@@H](C)C4)CC3)s2)c1 [Example 25, 2-[(3R)-3-methyl[1,4′-bipiperidin]-1′-yl]-N-[(4-methylpyridin-2-yl)methyl]-1,3-thiazole-5-carboxamide]
280 nM	C[C@@H]1CCCN(C2CCN(c3ncc(C(=O)NCc4ncccc4Cl)s3)CC2)C1 [Example 26, N-[(3-chloropyridin-2-yl)methyl]-2-[(3R)-3-methyl[1,4′-bipiperidin]-1′-yl]-1,3-thiazole-5-carboxamide]
310 nM	C[C@@H]1CCCN(C2CCN(c3ncc(C(=O)N(C)Cc4ncccc4F)s3)CC2)C1 [Example 27, N-[(3-fluoropyridin-2-yl)methyl]-N-methyl-2-[(3R)-3-methyl[1,4′-bipiperidin]-1′-yl]-1,3-thiazole-5-carboxamide]
890 nM	C[C@@H]1CCCN(C2CCN(c3ncc(C(=O)NCc4cccc(C(F)(F)F)n4)s3)CC2)C1 [Example 28, 2-[(3R)-3-methyl[1,4′-bipiperidin]-1′-yl]-N-{[6-(trifluoromethyl)pyridin-2-yl]methyl}-1,3-thiazole-5-carboxamide]
96 nM	C[C@@H]1CCCN(C2CCN(c3ncc(C(=O)NCc4ccc(Cl)cn4)s3)CC2)C1 [Example 29, N-[(5-chloropyridin-2-yl)methyl]-2-[(3R)-3-methyl[1,4′-bipiperidin]-1′-yl]-1,3-thiazole-5-carboxamide]
89 nM	C[C@@H]1CCCN(C2CCN(c3ncc(C(=O)NCc4ncc(F)cc4Cl)s3)CC2)C1 [Example 31, N-[(3-chloro-5-fluoropyridin-2-yl)methyl]-2-[(3R)-3-methyl[1,4′-bipiperidin]-1′-yl]-1,3-thiazole-5-carboxamide]
640 nM	C[C@@H]1CCCN(C2CCN(c3ncc(C(=O)NCc4cccc(OC(F)(F)F)n4)s3)CC2)C1 [Example 32, 2-[(3R)-3-methyl[1,4′-bipiperidin]-1′-yl]-N-{[6-(trifluoromethoxy)pyridin-2-yl]methyl}-1,3-thiazole-5-carboxamide]
15 nM	C[C@@H]1CCCN(C2CCN(c3ncc(C(=O)NCc4ccc(Cl)cc4)s3)CC2)C1 [Example 33, N-(4-chlorobenzyl)-2-[(3R)-3-methyl[1,4′-bipiperidin]-1′-yl]-1,3-thiazole-5-carboxamide]
640 nM	C[C@@H]1CCCN(C2CCN(c3ncc(C(=O)NCc4cc(F)ccc4Cl)s3)CC2)C1 [Example 34, N-(2-chloro-5-fluorobenzyl)-2-[(3R)-3-methyl[1,4′-bipiperidin]-1′-yl]-1,3-thiazole-5-carboxamide]
1000 nM	Cc1ccc(CNC(=O)c2cnc(N3CCC(N4CCC[C@@H](C)C4)CC3)s2)cc1 [Example 35, N-(4-methylbenzyl)-2-[(3R)-3-methyl[1,4′-bipiperidin]-1′-yl]-1,3-thiazole-5-carboxamide]
190 nM	Cc1cccc(CNC(=O)c2cnc(N3CCC(N4CCC[C@@H](C)C4)CC3)s2)c1 [Example 36, N-(3-methylbenzyl)-2-[(3R)-3-methyl[1,4′-bipiperidin]-1′-yl]-1,3-thiazole-5-carboxamide]
200 nM	Cc1ccccc1CNC(=O)c1cnc(N2CCC(N3CCC[C@@H](C)C3)CC2)s1 [Example 37, N-(2-methylbenzyl)-2-[(3R)-3-methyl[1,4′-bipiperidin]-1′-yl]-1,3-thiazole-5-carboxamide]

IC50	SMILES
2340 nM	O=C(NCc1ncc(F)cc1F)c1cnc(N2CCC(N3CCC[C@H](C(F)F)C3)CC2)s1 [Example 38, 2-[(3S)-3-(Difluoromethyl)[1,4′-bipiperidin]-1′-yl]-N-[(3,5-difluoropyridin-2-yl)methyl]-1,3-thiazole-5-carboxamide]
135 nM	O=C(NCc1ncc(F)cc1F)c1cnc(N2CCC(N3CCC[C@@H](C(F)F)C3)CC2)s1 [Example 39, 2-[(3R)-3-(Difluoromethyl)[1,4′-bipiperidin]-1′-yl]-N-[(3,5-difluoropyridin-2-yl)methyl]-1,3-thiazole-5-carboxamide]
243 nM	O=C(NCc1ncc(F)cc1F)c1cnc(N2CCC(N3CCC[C@@H](CF)C3)CC2)s1 [Example 41, N-[(3,5-Difluoropyridin-2-yl)methyl]-2-[(3R)-3-(fluoromethyl)[1,4′-bipiperidin]-1′-yl]-1,3-thiazole-5-carboxamide]
26 nM	O=C(NCc1ncc(F)cc1F)c1cnc(N2CCC(N3CCC[C@@H](C(F)(F)F)C3)CC2)s1 [Example 43, N-[(3,5-Difluoropyridin-2-yl)methyl]-2-[(3R)-3-(trifluoromethyl)[1,4′-bipiperidin]-1′-yl]-1,3-thiazole-5-carboxamide]
41.2 nM	O=C(NCc1ncc(F)cc1F)c1cnc(N2CCC(N3CCC[C@@H](OCC4CC(F)(F)C4)C3)CC2)s1 [Example 44, 2-{(3R)-3-[(3,3-Difluorocyclobutyl)methoxy][1,4′-bipiperidin]-1′-yl}-N-[(3,5-difluoropyridin-2-yl)methyl]-1,3-thiazole-5-carboxamide]
56 nM	C[C@@H]1CCCN(C2CCN(c3noc(C(=O)NCc4ncc(F)cc4F)n3)CC2)C1 [Example 49, N-[(3,5-Difluoropyridin-2-yl)methyl]-3-[(3R)-3-methyl[1,4′-bipiperidin]-1′-yl]-1,2,4-oxadiazole-5-carboxamide]
240 nM	C[C@@H]1CCCN(C2CCN(c3ncc(C(=O)NCc4ncc(Cl)s4)s3)CC2)C1 [Example 56, N-[(5-Chloro-1,3-thiazol-2-yl)methyl]-2-[(3R)-3-methyl[1,4′-bipiperidin]-1′-yl]-1,3-thiazole-5-carboxamide]
830 nM	C[C@@H]1CCCN(C2CCN(c3ncc(C(=O)NCc4ccc(F)s4)s3)CC2)C1 [Example 57, N-[(5-Fluoro-2-thienyl)methyl]-2-[(3R)-3-methyl[1,4′-bipiperidin]-1′-yl]-1,3-thiazole-5-carboxamide]
870 nM	C[C@@H]1CCCN(C2CCN(c3ncc(C(=O)NCc4ccncc4)s3)CC2)C1 [Example 58, 2-[(3R)-3-Methyl[1,4′-bipiperidin]-1′-yl]-N-(pyridin-4-ylmethyl)-1,3-thiazole-5-carboxamide]
570 nM	CC1(C)CCCN(C2CCN(c3ncc(C(=O)NCc4ncc(F)cc4F)s3)CC2)C1 [Example 63, N-[(3,5-Difluoropyridin-2-yl)methyl]-2-(3,3-dimethyl[1,4′-bipiperidin]-1′-yl)-1,3-thiazole-5-carboxamide]
1.4 nM	O=C(NCc1ncc(F)cc1F)c1cnc(N2CCC(N3CCCC4(CC4)C3)CC2)s1 [Example 64, 2-[4-(5-Azaspiro[2.5]octan-5-yl)piperidin-1-yl]-N-[(3,5-difluoropyridin-2-yl)methyl]-1,3-thiazole-5-carboxamide]
100 nM	C[C@@H]1CCCN(C2CCCN(c3ncc(C(=O)NCc4ncc(F)cc4F)s3)CC2)C1 (stereo partly drawn) [Example 71, N-[(3,5-Difluoropyridin-2-yl)methyl]-2-{4-[(3R)-3-methylpiperidin-1-yl]azepan-1-yl}-1,3-thiazole-5-carboxamide]
180 nM	Cc1ccc(CNC(=O)c2cnc(N3CCC(N4CCC[C@@H](C)C4)CC3)s2)cn1 [Example 72, 2-[(3R)-3-methyl[1,4′-bipiperidin]-1′-yl]-N-[(6-methylpyridin-3-yl)methyl]-1,3-thiazole-5-carboxamide]
219 nM	C[C@@H]1CCCN(C2CCN(c3ncc(C(=O)NCc4ccccc4)s3)CC2)C1 [Example 73, N-Benzyl-2-[(3R)-3-methyl[1,4′-bipiperidin]-1′-yl]-1,3-thiazole-5-carboxamide]
285 nM	CC(F)CCOCC1CCCN(C2CCN(c3ncc(C(=O)NCc4ncc(F)cc4F)s3)CC2)C1 (centres unmarked) [Example 74, diamix-N-[(3,5-Difluoropyridin-2-yl)methyl]-2-[3-({[3-fluorobutyl]oxy}methyl)[1,4′-bipiperidin]-1′-yl]-1,3-thiazole-5-carboxamide]
400 nM	C[C@@H]1CCCN(C2CCN(c3ncc(C(=O)NCc4ccncc4F)s3)CC2)C1 [Example 76, N-[(3-Fluoropyridin-4-yl)methyl]-2-[(3R)-3-methyl[1,4′-bipiperidin]-1′-yl]-1,3-thiazole-5-carboxamide]
